Results as given in patent US20220395472A1 (Dermavant Sciences GmbH, priority 2021, published 2022).

System: adults with plaque psoriasis
Experiment: Long-term open-label extension study (PSOARING 3): Physician Global Assessment (PGA), treatment episodes, treatment success, remittive effect
Type: in vivo, human
Experimental: This extension study consisted of up to 40 weeks of treatment and a 4 week, safety follow up period.
At the completion of the Week 12 visit of the DB, pivotal Phase 3 study, eligibility of the subjects opting to enroll in this extension study was confirmed. Study visits during the treatment period for all subjects occurred every 4 weeks (±3 days). A phone call was performed at Week 2 (Day 15). Unscheduled visits may have occurred, as needed. Subjects who withdrew from this study before Week 40 returned to the study center for an Early Termination visit. The total duration of this extension study participation was 44 weeks. Subjects in this study were treated as follows based on their PGA score from the Week 12 visit in the DB, pivotal Phase 3 study (Study DMVT 505 3001 or Study DMVT 505 3002).
The PGA was used to assess the primary efficacy endpoint in this study. The PGA is a clinical tool for assessing the current state/severity of a subject's psoriasis at a given time point. It is a static, 5 point, morphological assessment of overall disease severity, as determined by the Investigator, using the clinical characteristics of erythema, scaling, and plaque thickness/elevation as guidelines; higher PGA scores represent more severe disease (0=clear, 1=almost clear, 2=mild, 3=moderate, and 4=severe). The BSA affected was not considered in scoring of the PGA. Variations of the PGA are frequently used in clinical studies because it is a simple assessment, similar to those used in clinical practice. The PGA was performed first, prior to the % BSA, PASI, and LTS assessments.
Time to event parameters, such as the time from treatment success to subsequent worsening (PGA≥2) or duration of treatment episode, were summarized by the Kaplan Meier product limit method using OC.

[1] = Week 16, LOCF, Vehicle (Pivotal) group
[2] = Week 16, OC, Vehicle (Pivotal) group
[3] = Week 16 LOCF, Tapinarof (Pivotal)
[4] = Week 16 LOCF, Vehicle (Pivotal)
[5] = Week 16 OC, Tapinarof (Pivotal)

CC(C)c1c(O)cc(/C=C/c2ccccc2)cc1O [Tapinarof, 3,5-Dihydroxy-4-isopropyl-trans-stilbene]
Total Duration of Treatment Success, Median (ITT, Vehicle (Pivotal) group): 97.0 days | tachyphylaxis (decline of clinical effects over time on treatment) (PGA, % BSA, PASI over time): not observed | Subjects with PGA=1 (Week 16, LOCF, Tapinarof (Pivotal) group): 30.4% | Subjects with PGA=0 [1]: 12.7% | Subjects with PGA=1 [1]: 25.8% | Subjects with PGA=1 (Week 16, OC, Tapinarof (Pivotal) group): 32.2% | Subjects with PGA=0 [2]: 12.9% | Subjects with PGA=1 [2]: 28.2% | PGA 0 - Clear (Week 16 LOCF, Overall): 121 (16.2) n (%) | PGA 1 - Almost Clear (Week 16 LOCF, Overall): 215 (28.9) n (%) | PGA 2 - Mild (Week 16 LOCF, Overall): 279 (37.4) n (%) | PGA 3 - Moderate (Week 16 LOCF, Overall): 119 (16.0) n (%) | PGA 4 - Severe (Week 16 LOCF, Overall): 11 (1.5) n (%) | PGA Change from Baseline: Improved by 1 (Week 16 LOCF, Overall): 219 (29.5) n (%) | PGA Change from Baseline: Improved by 2 (Week 16 LOCF, Overall): 91 (12.3) n (%) | PGA Change from Baseline: Improved by 3 (Week 16 LOCF, Overall): 14 (1.9) n (%) | PGA Change from Baseline: Improved by 4 (Week 16 LOCF, Overall): 2 (0.3) n (%) | PGA Change from Baseline: No Change (Week 16 LOCF, Overall): 297 (40.0) n (%) | PGA Change from Baseline: Worsened by 1 (Week 16 LOCF, Overall): 86 (11.6) n (%) | PGA Change from Baseline: Worsened by 2 (Week 16 LOCF, Overall): 28 (3.8) n (%) | PGA Change from Baseline: Worsened by 3 (Week 16 LOCF, Overall): 5 (0.7) n (%) | PGA Change from Baseline: Worsened by 4 (Week 16 LOCF, Overall): 0 (0.0) n (%) | PGA 1 - Almost Clear [3]: 150 (30.4) n (%) | PGA 2 - Mild [3]: 174 (35.3) n (%) | PGA 3 - Moderate [3]: 74 (15.0) n (%) | PGA 4 - Severe [3]: 6 (1.2) n (%) | PGA Change from Baseline: Improved by 1 [3]: 122 (24.8) n (%) | PGA Change from Baseline: Improved by 2 [3]: 37 (7.5) n (%) | PGA Change from Baseline: Improved by 3 [3]: 1 (0.2) n (%) | PGA Change from Baseline: Improved by 4 [3]: 1 (0.2) n (%) | PGA Change from Baseline: No Change [3]: 223 (45.4) n (%) | PGA Change from Baseline: Worsened by 1 [3]: 77 (15.7) n (%) | PGA Change from Baseline: Worsened by 2 [3]: 25 (5.1) n (%) | PGA Change from Baseline: Worsened by 3 [3]: 5 (1.0) n (%) | PGA Change from Baseline: Worsened by 4 [3]: 0 (0.0) n (%) | PGA 0 - Clear [4]: 32 (12.7) n (%) | PGA 1 - Almost Clear [4]: 65 (25.8) n (%) | PGA 3 - Moderate [4]: 45 (17.9) n (%) | PGA 4 - Severe [4]: 5 (2.0) n (%) | PGA Change from Baseline: Improved by 1 [4]: 97 (38.6) n (%) | PGA Change from Baseline: Improved by 2 [4]: 54 (21.5) n (%) | PGA Change from Baseline: Improved by 3 [4]: 13 (5.2) n (%) | PGA Change from Baseline: Improved by 4 [4]: 1 (0.4) n (%) | PGA Change from Baseline: No Change [4]: 74 (29.5) n (%) | PGA Change from Baseline: Worsened by 1 [4]: 9 (3.6) n (%) | PGA Change from Baseline: Worsened by 2 [4]: 3 (1.2) n (%) | PGA Change from Baseline: Worsened by 3 [4]: 0 (0.0) n (%) | PGA Change from Baseline: Worsened by 4 [4]: 0 (0.0) n (%) | PGA 0 - Clear (Week 16 OC, Overall): 107 (17.0) n (%) | PGA 1 - Almost Clear (Week 16 OC, Overall): 194 (30.9) n (%) | PGA 2 - Mild (Week 16 OC, Overall): 236 (37.6) n (%) | PGA 3 - Moderate (Week 16 OC, Overall): 86 (13.7) n (%) | PGA 4 - Severe (Week 16 OC, Overall): 5 (0.8) n (%) | PGA Change from Baseline: Improved by 1 (Week 16 OC, Overall): 190 (30.3) n (%) | PGA Change from Baseline: Improved by 2 (Week 16 OC, Overall): 77 (12.3) n (%) | PGA Change from Baseline: Improved by 3 (Week 16 OC, Overall): 13 (2.1) n (%) | PGA Change from Baseline: Improved by 4 (Week 16 OC, Overall): 2 (0.3) n (%) | PGA Change from Baseline: No Change (Week 16 OC, Overall): 246 (39.2) n (%) | PGA Change from Baseline: Worsened by 1 (Week 16 OC, Overall): 69 (11.0) n (%) | PGA Change from Baseline: Worsened by 2 (Week 16 OC, Overall): 25 (4.0) n (%) | PGA Change from Baseline: Worsened by 3 (Week 16 OC, Overall): 5 (0.8) n (%) | PGA Change from Baseline: Worsened by 4 (Week 16 OC, Overall): 0 (0.0) n (%) | PGA 0 - Clear [5]: 80 (19.1) n (%) | PGA 1 - Almost Clear [5]: 135 (32.2) n (%) | PGA 2 - Mild [5]: 146 (34.8) n (%) | PGA 3 - Moderate [5]: 54 (12.9) n (%) | PGA 4 - Severe [5]: 4 (1.0) n (%) | PGA Change from Baseline: Improved by 1 [5]: 109 (26.1) n (%) | PGA Change from Baseline: Improved by 2 [5]: 29 (6.9) n (%) | PGA Change from Baseline: Improved by 3 [5]: 1 (0.2) n (%) | PGA Change from Baseline: Improved by 4 [5]: 1 (0.2) n (%) | PGA Change from Baseline: No Change [5]: 187 (44.7) n (%) | PGA Change from Baseline: Worsened by 2 [5]: 23 (5.5) n (%) | PGA Change from Baseline: Worsened by 3 [5]: 5 (1.2) n (%) | PGA Change from Baseline: Worsened by 4 [5]: 0 (0.0) n (%) | PGA 0 - Clear (Week 16 OC, Vehicle (Pivotal)): 27 (12.9) n (%) | PGA 1 - Almost Clear (Week 16 OC, Vehicle (Pivotal)): 59 (28.2) n (%) | PGA 2 - Mild (Week 16 OC, Vehicle (Pivotal)): 90 (43.1) n (%) | PGA 3 - Moderate (Week 16 OC, Vehicle (Pivotal)): 32 (15.3) n (%) | PGA 4 - Severe (Week 16 OC, Vehicle (Pivotal)): 1 (0.5) n (%) | PGA Change from Baseline: Improved by 1 (Week 16 OC, Vehicle (Pivotal)): 81 (38.8) n (%) | PGA Change from Baseline: Improved by 2 (Week 16 OC, Vehicle (Pivotal)): 48 (23.0) n (%) | PGA Change from Baseline: Improved by 3 (Week 16 OC, Vehicle (Pivotal)): 12 (5.7) n (%)
